Results taken from ChEMBL document CHEMBL1201862, “PubChem BioAssay data set” (2004).
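Method: 48-hour compound exposure of cells in 96-well plates, five concentrations, linear interpolation of endpoints. GI50 is the concentration that inhibits growth by half.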 Active and inactive are the calls of the source. No stated cut-off is given here; in the data, active = GI50 up to about 1.1 µM and inactive = higher.

How the values were obtained:
Experiment in all cases: NCI tumour cell line growth inhibition, 48 h
SK-MEL-2 = test system: SK-MEL-2
MOLT-4 = test system: MOLT-4
NCI-H460 = test system: NCI-H460
NCI-H522 = test system: NCI-H522
NCI/ADR-RES = test system: NCI/ADR-RES
OVCAR-8 = test system: OVCAR-8
OVCAR-3 = test system: OVCAR-3
SK-MEL-5 = test system: SK-MEL-5
Hs-578T = test system: Hs-578T
SNB-75 = test system: SNB-75
HOP-92 = test system: HOP-92
SW-620 = test system: SW-620
KM12 = test system: KM12
NCI-H226 = test system: NCI-H226
DU-145 = test system: DU-145
M14 = test system: M14
COLO 205 = test system: COLO 205
IGROV-1 = test system: IGROV-1
K562 = test system: K562
A498 = test system: A498
786-0 = test system: 786-0
SF-295 = test system: SF-295
HL-60 = test system: HL-60
MCF7 = test system: MCF7
NCI-H23 = test system: NCI-H23
CCRF-CEM = test system: CCRF-CEM
T47D = test system: T47D
HCT-116 = test system: HCT-116
SK-MEL-28 = test system: SK-MEL-28
HCT-15 = test system: HCT-15
MDA-MB-231 = test system: MDA-MB-231
SR = test system: SR
OVCAR-4 = test system: OVCAR-4
HCC 2998 = test system: HCC 2998
MDA-MB-435 = test system: MDA-MB-435
HT-29 = test system: HT-29
U-251 = test system: U-251
SNB-19 = test system: SNB-19
UO-31 = test system: UO-31
ACHN = test system: ACHN
SK-OV-3 = test system: SK-OV-3
PC-3 = test system: PC-3
RXF 393 = test system: RXF 393
SN12C = test system: SN12C
EKVX = test system: EKVX
HOP-62 = test system: HOP-62
OVCAR-5 = test system: OVCAR-5
CAKI-1 = test system: CAKI-1
SF-539 = test system: SF-539
BT-549 = test system: BT-549
A549 = test system: A549
RPMI-8226 = test system: RPMI-8226
TK-10 = test system: TK-10
SF-268 = test system: SF-268
UACC-62 = test system: UACC-62
UACC-257 = test system: UACC-257
Malme-3M = test system: Malme-3M
LOX IMVI = test system: LOX IMVI
MDA-N = test system: MDA-N

`CC1=NN(c2nc(N)nc(CCl)n2)CC1` was tested, and the GI50 (SK-MEL-2) was 26.6 µM (inactive), the GI50 (MOLT-4) was 19.7 µM (inactive) and the GI50 (NCI-H460) was 20.9 µM (inactive). The GI50 (NCI-H522) was 1.96 µM (inactive), the GI50 (NCI/ADR-RES) was 24.2 µM (inactive) and the GI50 (OVCAR-8) was 20.8 µM (inactive). For the same molecule, the GI50 (OVCAR-3) was 13.4 µM (inactive), the GI50 (SK-MEL-5) was 14.8 µM (inactive) and the GI50 (Hs-578T) was 26.3 µM (inactive). For the same molecule, the GI50 (SNB-75) was 18.6 µM (inactive), the GI50 (HOP-92) was 19.3 µM (inactive) and the GI50 (SW-620) was 23.3 µM (inactive). For the same molecule, the GI50 (KM12) was 16.4 µM (inactive), the GI50 (NCI-H226) was 30.5 µM (inactive) and the GI50 (DU-145) was 56.4 µM (inactive). For the same molecule, the GI50 (M14) was 25 µM (inactive), the GI50 (COLO 205) was 18.5 µM (inactive) and the GI50 (IGROV-1) was 7.14 µM (inactive). The GI50 (K562) was 18.2 µM (inactive), the GI50 (A498) was 42.3 µM (inactive) and the GI50 (786-0) was 10.1 µM (inactive). The GI50 (SF-295) was 30.2 µM (inactive), the GI50 (HL-60) was 12 µM (inactive) and the GI50 (MCF7) was 38.1 µM (inactive). For the same molecule, the GI50 (NCI-H23) was 19.3 µM (inactive), the GI50 (CCRF-CEM) was 14.9 µM (inactive) and the GI50 (T47D) was 74.8 µM (inactive). The GI50 (HCT-116) was 24.5 µM (inactive), the GI50 (SK-MEL-28) was 22.8 µM (inactive) and the GI50 (HCT-15) was 17.3 µM. The GI50 (MDA-MB-231) was 40 µM (inactive), the GI50 (SR) was 20.8 µM (inactive) and the GI50 (OVCAR-4) was 16.8 µM (inactive). For the same molecule, the GI50 (HCC 2998) was 31.2 µM (inactive), the GI50 (MDA-MB-435) was 32 µM (inactive) and the GI50 (HT-29) was 30.4 µM (inactive). The GI50 (U-251) was 29.4 µM (inactive), the GI50 (SNB-19) was > 100 µM (inactive) and the GI50 (UO-31) was 7.76 µM (inactive). The GI50 (ACHN) was 17.3 µM (inactive), the GI50 (SK-OV-3) was 36.6 µM (inactive) and the GI50 (PC-3) was 36.2 µM (inactive). For the same molecule, the GI50 (RXF 393) was 49.8 µM (inactive), the GI50 (SN12C) was 32.4 µM (inactive) and the GI50 (EKVX) was 16.1 µM (inactive). The GI50 (HOP-62) was 11.4 µM (inactive), the GI50 (OVCAR-5) was 20 µM (inactive) and the GI50 (CAKI-1) was 9.12 µM (inactive). The GI50 (SF-539) was 24.5 µM (inactive), the GI50 (BT-549) was 31 µM (inactive) and the GI50 (A549) was 57.7 µM (inactive). The GI50 (RPMI-8226) was 38.9 µM (inactive), the GI50 (TK-10) was 55.5 µM (inactive) and the GI50 (SF-268) was 32.7 µM (inactive). For the same molecule, the GI50 (UACC-62) was 15.2 µM (inactive) and the GI50 (UACC-257) was 69.5 µM (inactive).

For `COc1ccc(CCN(C)C(=O)CC(C#N)(c2ccccc2)c2ccc(OC)c(OC)c2)cc1OC` (configuration not stated), the GI50 (SK-MEL-2) was > 100 µM (inactive), the GI50 (MOLT-4) was > 45.9 µM (inactive) and the GI50 (NCI-H460) was > 100 µM (inactive). For the same molecule, the GI50 (NCI-H522) was > 94.6 µM (inactive), the GI50 (NCI/ADR-RES) was > 100 µM (inactive) and the GI50 (OVCAR-8) was > 100 µM (inactive). The GI50 (OVCAR-3) was > 100 µM (inactive), the GI50 (SK-MEL-5) was 98.4 µM (inactive) and the GI50 (Hs-578T) was > 100 µM (inactive). For the same molecule, the GI50 (SNB-75) was > 100 µM (inactive), the GI50 (HOP-92) was 3.15 µM (inactive) and the GI50 (SW-620) was > 100 µM (inactive). The GI50 (KM12) was > 100 µM (inactive), the GI50 (NCI-H226) was > 100 µM (inactive) and the GI50 (DU-145) was > 100 µM (inactive). For the same molecule, the GI50 (M14) was > 100 µM (inactive), the GI50 (COLO 205) was > 100 µM (inactive) and the GI50 (IGROV-1) was > 100 µM (inactive). The GI50 (K562) was > 42.2 µM (inactive), the GI50 (Malme-3M) was > 100 µM (inactive) and the GI50 (A498) was > 100 µM (inactive). For the same molecule, the GI50 (LOX IMVI) was > 100 µM (inactive), the GI50 (786-0) was > 100 µM (inactive) and the GI50 (SF-295) was > 100 µM (inactive). For the same molecule, the GI50 (HL-60) was > 100 µM (inactive), the GI50 (MCF7) was > 100 µM (inactive) and the GI50 (NCI-H23) was > 100 µM (inactive). The GI50 (CCRF-CEM) was > 100 µM (inactive), the GI50 (T47D) was > 100 µM (inactive) and the GI50 (HCT-116) was > 100 µM (inactive). For the same molecule, the GI50 (SK-MEL-28) was > 100 µM (inactive), the GI50 (MDA-N) was > 100 µM (inactive) and the GI50 (HCT-15) was over 100 µM. For the same molecule, the GI50 (OVCAR-4) was > 100 µM (inactive), the GI50 (MDA-MB-435) was > 100 µM (inactive) and the GI50 (HT-29) was > 100 µM (inactive). For the same molecule, the GI50 (U-251) was > 100 µM (inactive), the GI50 (SNB-19) was > 100 µM (inactive) and the GI50 (UO-31) was > 74.6 µM (inactive). The GI50 (ACHN) was > 100 µM (inactive), the GI50 (SK-OV-3) was > 100 µM (inactive) and the GI50 (PC-3) was > 100 µM (inactive). For the same molecule, the GI50 (RXF 393) was > 86.5 µM (inactive), the GI50 (SN12C) was > 100 µM (inactive) and the GI50 (EKVX) was > 100 µM (inactive). For the same molecule, the GI50 (HOP-62) was > 100 µM (inactive), the GI50 (OVCAR-5) was > 100 µM (inactive) and the GI50 (CAKI-1) was > 100 µM (inactive). For the same molecule, the GI50 (SF-539) was > 100 µM (inactive), the GI50 (BT-549) was > 100 µM (inactive) and the GI50 (A549) was > 100 µM (inactive). For the same molecule, the GI50 (RPMI-8226) was > 46.9 µM (inactive), the GI50 (TK-10) was > 100 µM (inactive) and the GI50 (SF-268) was > 100 µM (inactive). The GI50 (UACC-62) was > 100 µM (inactive) and the GI50 (UACC-257) was > 100 µM (inactive).
